From ChEMBL document CHEMBL1147578, “Design, synthesis, and SAR of anthranilamide-based factor Xa inhibitors with improved functional activity” (Bioorg Med Chem Lett, 2004) come the findings set out here.

Experiment [1] deals with Vitamin K-dependent protein C (Homo sapiens, UniProt P04070). Kind of experiment: Inhibitory activity against activated protein C.
Experiment [2] has as its target Tissue-type plasminogen activator (Homo sapiens, UniProt P00750). In words: Inhibitory activity against tissue type plasminogen activator.
The target in experiment [3] is Prothrombin (Homo sapiens, UniProt P00734). Kind of experiment: Inhibitory activity against thrombin.
Experiment [4] deals with Coagulation factor X (Homo sapiens, UniProt P00742). In words: In vitro inhibitory activity against coagulation factor X.
Sequence of Coagulation factor X (P00742 41-179 limits assumed): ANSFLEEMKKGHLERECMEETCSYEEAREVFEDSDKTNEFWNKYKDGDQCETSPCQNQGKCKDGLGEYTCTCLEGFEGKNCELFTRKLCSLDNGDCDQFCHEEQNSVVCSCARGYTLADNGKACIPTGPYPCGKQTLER
Sequence of Coagulation factor X (P00742 235-488 limits assumed): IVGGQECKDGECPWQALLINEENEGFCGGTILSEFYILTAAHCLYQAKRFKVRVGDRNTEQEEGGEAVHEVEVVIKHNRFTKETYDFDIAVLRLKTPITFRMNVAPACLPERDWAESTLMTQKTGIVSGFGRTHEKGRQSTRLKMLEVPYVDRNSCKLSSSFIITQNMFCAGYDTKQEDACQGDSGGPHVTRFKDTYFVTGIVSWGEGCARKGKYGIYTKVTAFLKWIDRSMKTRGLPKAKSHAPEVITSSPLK
For experiment [5], the target named is Serine protease 1 (Homo sapiens, UniProt P07477). In words: Inhibitory activity against trypsin.
Sequence of Serine protease 1 (P07477 whole entry): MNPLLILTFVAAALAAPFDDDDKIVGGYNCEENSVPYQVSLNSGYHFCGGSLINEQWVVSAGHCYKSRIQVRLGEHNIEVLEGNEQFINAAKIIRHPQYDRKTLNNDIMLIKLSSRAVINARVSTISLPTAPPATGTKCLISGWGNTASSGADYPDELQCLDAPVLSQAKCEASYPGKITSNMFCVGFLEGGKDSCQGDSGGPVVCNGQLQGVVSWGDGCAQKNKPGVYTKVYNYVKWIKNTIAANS
Experiment [6] deals with Plasminogen (Homo sapiens, UniProt P00747). Kind of experiment: Inhibitory activity against plasmin.
Sequence of Plasminogen (P00747 97-580 limits assumed): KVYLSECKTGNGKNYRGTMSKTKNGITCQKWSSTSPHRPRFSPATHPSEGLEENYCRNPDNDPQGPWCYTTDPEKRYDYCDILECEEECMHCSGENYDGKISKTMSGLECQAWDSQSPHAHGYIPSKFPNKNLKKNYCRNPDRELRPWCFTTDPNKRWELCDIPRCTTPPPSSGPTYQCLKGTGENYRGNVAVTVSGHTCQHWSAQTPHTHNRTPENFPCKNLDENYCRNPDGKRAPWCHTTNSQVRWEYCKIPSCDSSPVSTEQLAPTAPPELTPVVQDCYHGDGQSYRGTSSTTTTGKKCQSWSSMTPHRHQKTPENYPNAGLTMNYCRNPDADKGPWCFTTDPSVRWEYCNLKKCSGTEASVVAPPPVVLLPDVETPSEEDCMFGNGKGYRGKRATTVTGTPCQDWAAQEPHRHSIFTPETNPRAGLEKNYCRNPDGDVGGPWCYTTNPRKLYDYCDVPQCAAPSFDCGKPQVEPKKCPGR
Sequence of Plasminogen (P00747 581-810 limits assumed): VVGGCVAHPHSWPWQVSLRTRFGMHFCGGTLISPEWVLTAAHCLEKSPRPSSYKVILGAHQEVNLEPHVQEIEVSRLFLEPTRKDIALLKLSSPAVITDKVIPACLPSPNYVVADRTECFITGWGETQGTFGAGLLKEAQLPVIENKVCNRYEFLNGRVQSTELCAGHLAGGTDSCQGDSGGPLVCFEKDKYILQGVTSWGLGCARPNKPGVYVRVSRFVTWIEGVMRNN

Each structure is given as a SMILES string.

Sequence of Tissue-type plasminogen activator (P00750 whole entry): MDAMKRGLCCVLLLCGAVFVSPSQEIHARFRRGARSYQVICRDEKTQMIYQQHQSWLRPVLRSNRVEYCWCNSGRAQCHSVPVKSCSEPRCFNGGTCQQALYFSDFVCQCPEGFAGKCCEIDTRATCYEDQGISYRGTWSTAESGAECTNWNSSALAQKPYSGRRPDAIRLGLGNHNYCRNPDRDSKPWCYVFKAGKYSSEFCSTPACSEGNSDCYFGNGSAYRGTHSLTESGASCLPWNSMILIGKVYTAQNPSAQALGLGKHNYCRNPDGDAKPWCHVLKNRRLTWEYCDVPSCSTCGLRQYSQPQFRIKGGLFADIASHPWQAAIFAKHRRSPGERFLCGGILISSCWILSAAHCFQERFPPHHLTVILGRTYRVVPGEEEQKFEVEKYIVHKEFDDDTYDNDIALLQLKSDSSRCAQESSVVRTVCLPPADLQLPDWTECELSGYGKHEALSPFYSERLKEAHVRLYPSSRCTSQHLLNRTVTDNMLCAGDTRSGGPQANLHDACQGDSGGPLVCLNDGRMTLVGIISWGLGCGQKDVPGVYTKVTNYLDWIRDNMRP
Sequence of Vitamin K-dependent protein C (P04070 43-197 limits assumed): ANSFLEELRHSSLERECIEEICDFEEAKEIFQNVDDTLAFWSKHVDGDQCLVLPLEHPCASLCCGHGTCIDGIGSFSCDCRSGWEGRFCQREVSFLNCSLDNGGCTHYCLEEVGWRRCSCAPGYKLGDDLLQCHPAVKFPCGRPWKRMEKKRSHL
Sequence of Vitamin K-dependent protein C (P04070 212-461 limits assumed): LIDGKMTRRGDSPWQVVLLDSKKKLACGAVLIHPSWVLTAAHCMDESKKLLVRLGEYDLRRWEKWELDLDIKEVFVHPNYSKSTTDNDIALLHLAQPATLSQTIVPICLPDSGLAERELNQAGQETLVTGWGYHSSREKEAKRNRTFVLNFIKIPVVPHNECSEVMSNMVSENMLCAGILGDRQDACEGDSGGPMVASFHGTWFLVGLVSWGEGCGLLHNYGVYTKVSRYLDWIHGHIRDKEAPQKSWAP

With `NC1CCN(Cc2ccc(C(=O)Nc3ccc(Cl)cc3C(=O)Nc3ccc(Cl)cn3)cc2)CC1`, the IC50 is over 11 µM in experiment [1]; over 11 µM in experiment [2]; over 11 µM in experiment [3]; 0.015 µM in experiment [4]; over 11 µM in experiment [5]; over 11 µM in experiment [6].
Consider `O=C(Nc1ccc(Cl)cc1C(=O)Nc1ccc(Cl)cn1)c1ccc(CN2CCCC2=O)cc1`, for which the IC50 in experiment [1] was over 11 µM; in experiment [2] it was over 11 µM; in experiment [3] it was over 11 µM; in experiment [4], 0.552 µM; in experiment [5] it was over 11 µM; in experiment [6] it was over 11 µM.
As to `C[N+]1(Cc2ccc(C(=O)Nc3ccc(Cl)cc3C(=O)Nc3ccc(Cl)cn3)cc2)CCCC1`, the IC50 in experiment [1] is over 11 µM; in experiment [2], over 11 µM; in experiment [3] it was over 11 µM; in experiment [4] it was 0.0023 µM; in experiment [5] it was over 11 µM; in experiment [6], over 11 µM.
Take `CN(C)CCN(C)Cc1ccc(C(=O)Nc2ccc(Cl)cc2C(=O)Nc2ccc(Cl)cn2)cc1`: the IC50 in experiment [1] was over 11 µM; in experiment [2] it was over 11 µM; in experiment [3], over 11 µM; in experiment [4], 0.0069 µM; in experiment [5] it was over 11 µM; in experiment [6], over 11 µM.
For `CCN(C)Cc1ccc(C(=O)Nc2ccc(Cl)cc2C(=O)Nc2ccc(Cl)cn2)cc1`, the IC50 in experiment [1] is over 11 µM; in experiment [2] it was over 11 µM; in experiment [3], over 11 µM; in experiment [4], 0.012 µM; in experiment [5], over 11 µM; in experiment [6], over 11 µM.
In the case of `CN(C)C1=NCCN1Cc1ccc(C(=O)Nc2ccc(Cl)cc2C(=O)Nc2ccc(Cl)cn2)cc1`, the IC50 is over 11 µM in experiment [1]; over 11 µM in experiment [2]; over 11 µM in experiment [3]; 0.0013 µM in experiment [4]; over 11 µM in experiment [5]; over 11 µM in experiment [6].
On to `N=C(N)NCc1ccc(C(=O)Nc2ccc(Cl)cc2C(=O)Nc2ccc(Cl)cn2)cc1`, for which the IC50 is over 11 µM in experiment [1]; over 11 µM in experiment [2]; over 11 µM in experiment [3]; 0.0014 µM in experiment [4]; over 11 µM in experiment [5]; over 11 µM in experiment [6].
On to `CN(Cc1ccc(C(=O)Nc2ccc(Cl)cc2C(=O)Nc2ccc(Cl)cn2)cc1)C(=N)c1ccccc1`, for which the IC50 in experiment [1] was over 11 µM; in experiment [2], over 11 µM; in experiment [3] it was over 11 µM; in experiment [4], 0.011 µM; in experiment [5], over 11 µM; in experiment [6], over 11 µM.
For the compound `O=C(Nc1ccc(Cl)cc1C(=O)Nc1ccc(Cl)cn1)c1ccc(C[n+]2ccccc2)cc1`, the IC50 is over 11 µM in experiment [1]; over 11 µM in experiment [2]; over 11 µM in experiment [3]; 0.0058 µM in experiment [4]; over 11 µM in experiment [5]; over 11 µM in experiment [6].
In the case of `CNCCN(C)Cc1ccc(C(=O)Nc2ccc(Cl)cc2C(=O)Nc2ccc(Cl)cn2)cc1`, the IC50 was over 11 µM in experiment [1]; over 11 µM in experiment [2]; over 11 µM in experiment [3]; 0.0068 µM in experiment [4]; over 11 µM in experiment [5]; over 11 µM in experiment [6].
As to `CC(=O)NNCc1ccc(C(=O)Nc2ccc(Cl)cc2C(=O)Nc2ccc(Cl)cn2)cc1`, the IC50 is over 11 µM in experiment [1]; over 11 µM in experiment [2]; over 11 µM in experiment [3]; 0.04 µM in experiment [4]; over 11 µM in experiment [5]; over 11 µM in experiment [6].
In the case of `CN(CC(=O)O)Cc1ccc(C(=O)Nc2ccc(Cl)cc2C(=O)Nc2ccc(Cl)cn2)cc1`, the IC50 was over 11 µM in experiment [1]; over 11 µM in experiment [2]; over 11 µM in experiment [3]; 0.156 µM in experiment [4]; over 11 µM in experiment [5]; over 11 µM in experiment [6].
On to `CCN(CC)Cc1ccc(C(=O)Nc2ccc(Cl)cc2C(=O)Nc2ccc(Cl)cn2)cc1`, for which the IC50 in experiment [1] is over 11 µM; in experiment [2] it was over 11 µM; in experiment [3] it was over 11 µM; in experiment [4], 0.035 µM; in experiment [5], over 11 µM; in experiment [6], over 11 µM.
On to `CCOC(=O)C1CCN(Cc2ccc(C(=O)Nc3ccc(Cl)cc3C(=O)Nc3ccc(Cl)cn3)cc2)CC1`, for which the IC50 in experiment [1] was over 11 µM; in experiment [2], over 11 µM; in experiment [3], over 11 µM; in experiment [4] it was 0.171 µM; in experiment [5] it was over 11 µM; in experiment [6], over 11 µM.
Take `CNC1=NCCN1Cc1ccc(C(=O)Nc2ccc(Cl)cc2C(=O)Nc2ccc(Cl)cn2)cc1`: the IC50 in experiment [1] is over 11 µM; in experiment [2], over 11 µM; in experiment [3] it was over 11 µM; in experiment [4], 0.0035 µM; in experiment [5] it was over 11 µM; in experiment [6], over 11 µM.
As for `O=C(Nc1ccc(Cl)cc1C(=O)Nc1ccc(Cl)cn1)c1ccc(CN2CCCCC2)cc1`, the IC50 was over 11 µM in experiment [1]; over 11 µM in experiment [2]; over 11 µM in experiment [3]; 0.015 µM in experiment [4]; over 11 µM in experiment [5]; over 11 µM in experiment [6].
As to `CCOC(=O)CN(C)Cc1ccc(C(=O)Nc2ccc(Cl)cc2C(=O)Nc2ccc(Cl)cn2)cc1`, the IC50 was over 11 µM in experiment [1]; over 11 µM in experiment [2]; over 11 µM in experiment [3]; 0.176 µM in experiment [4]; over 11 µM in experiment [5]; over 11 µM in experiment [6].
Regarding `CN1CCN(Cc2ccc(C(=O)Nc3ccc(Cl)cc3C(=O)Nc3ccc(Cl)cn3)cc2)CC1`, the IC50 in experiment [1] was over 11 µM; in experiment [2], over 11 µM; in experiment [3], over 11 µM; in experiment [4] it was 0.015 µM; in experiment [5] it was over 11 µM; in experiment [6] it was over 11 µM.
On to `COCCN(C)Cc1ccc(C(=O)Nc2ccc(Cl)cc2C(=O)Nc2ccc(Cl)cn2)cc1`, for which the IC50 in experiment [1] is over 11 µM; in experiment [2] it was over 11 µM; in experiment [3] it was over 11 µM; in experiment [4], 0.053 µM; in experiment [5], over 11 µM; in experiment [6] it was over 11 µM.
With `O=C(Nc1ccc(Cl)cc1C(=O)Nc1ccc(Cl)cn1)c1ccc(CN2CCN=C2S)cc1`, the IC50 in experiment [1] was over 11 µM; in experiment [2] it was over 11 µM; in experiment [3], over 11 µM; in experiment [4] it was 0.035 µM; in experiment [5] it was over 11 µM; in experiment [6], over 11 µM.
Consider `CN(CCN(C)C(=N)N)Cc1ccc(C(=O)Nc2ccc(Cl)cc2C(=O)Nc2ccc(Cl)cn2)cc1`, for which the IC50 was over 11 µM in experiment [1]; over 11 µM in experiment [2]; over 11 µM in experiment [3]; 0.002 µM in experiment [4]; over 11 µM in experiment [5]; over 11 µM in experiment [6].
In the case of `O=C(Nc1ccc(Cl)cc1C(=O)Nc1ccc(Cl)cn1)c1ccc(CN2CCOCC2)cc1`, the IC50 in experiment [1] was over 11 µM; in experiment [2] it was over 11 µM; in experiment [3], over 11 µM; in experiment [4] it was 0.14 µM; in experiment [5], over 11 µM; in experiment [6] it was over 11 µM.
As to `NC1=NCCCN1Cc1ccc(C(=O)Nc2ccc(Cl)cc2C(=O)Nc2ccc(Cl)cn2)cc1`, the IC50 was over 11 µM in experiment [1]; over 11 µM in experiment [2]; over 11 µM in experiment [3]; 0.0038 µM in experiment [4]; over 11 µM in experiment [5]; over 11 µM in experiment [6].

The IC50 is the concentration that inhibits the measured activity by half. Higher therefore signals weaker potency.
